15 molecules from US10626081B2, “Farnesoid X receptor agonists and uses thereof” (Metacrine, Inc., priority 2015, dated 2020) can be followed below.

For orientation: EC50 means the concentration at which the effect is half-maximal. A high value points to a less potent agent.

Bounds are passed on as bounds.

Assay [1] has as its target T1, FXR (Homo sapiens, UniProt Q96RI1).
T1 construct: expressed in transfected cells; host or cells: CV-1 cells
T1 sequence (Q96RI1 1-486): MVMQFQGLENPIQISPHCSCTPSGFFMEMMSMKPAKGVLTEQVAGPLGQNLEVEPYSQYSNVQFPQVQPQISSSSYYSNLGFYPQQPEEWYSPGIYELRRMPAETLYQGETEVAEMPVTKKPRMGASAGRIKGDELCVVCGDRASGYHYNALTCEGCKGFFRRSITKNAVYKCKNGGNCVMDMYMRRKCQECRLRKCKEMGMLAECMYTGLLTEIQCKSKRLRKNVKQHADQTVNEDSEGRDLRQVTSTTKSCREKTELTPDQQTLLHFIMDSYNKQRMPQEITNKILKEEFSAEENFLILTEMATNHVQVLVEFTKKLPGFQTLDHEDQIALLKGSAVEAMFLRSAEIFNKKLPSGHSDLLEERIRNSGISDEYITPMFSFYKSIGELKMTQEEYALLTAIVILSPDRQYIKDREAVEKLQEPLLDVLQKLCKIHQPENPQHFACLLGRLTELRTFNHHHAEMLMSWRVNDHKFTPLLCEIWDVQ
T1 sequence (P19793 1-462 partner): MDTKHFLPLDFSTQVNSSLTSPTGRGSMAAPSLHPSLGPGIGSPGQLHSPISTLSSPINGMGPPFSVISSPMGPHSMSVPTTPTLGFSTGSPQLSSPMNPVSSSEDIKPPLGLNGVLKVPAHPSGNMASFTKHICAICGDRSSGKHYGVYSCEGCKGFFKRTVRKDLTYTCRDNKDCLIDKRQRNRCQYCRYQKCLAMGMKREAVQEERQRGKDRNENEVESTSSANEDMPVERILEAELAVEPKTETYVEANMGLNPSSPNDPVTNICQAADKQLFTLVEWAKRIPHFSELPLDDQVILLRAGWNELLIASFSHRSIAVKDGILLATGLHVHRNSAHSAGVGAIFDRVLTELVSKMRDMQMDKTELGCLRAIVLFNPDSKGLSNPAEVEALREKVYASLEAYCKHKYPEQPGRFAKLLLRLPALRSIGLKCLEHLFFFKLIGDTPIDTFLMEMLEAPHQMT
Kind of assay: In Vitro FXR Assay (TK): TK-ECRE-luc reporter in transfected CV-1 cells. It is filed as cell-based. The note with it: CV-1 cells transfected with hFXR, hRXR, 18 h incubation, luminescence. In outline: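 Luciferase read-out from lysed CV-1 cells exposed 18 h to DMSO-diluted compounds. Cells had been transfected overnight with expression plasmids for hFXR and hRXR plus TK-ECRE-luc reporter and pCMX-YFP, grown in charcoal-stripped serum at 37 °C, 5% CO2.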

The target of assay [2] is T1, FXR. Kind of assay: In Vitro FXR Assay (PGL3): luciferase reporter in transfected CV-1 cells. It is filed as cell-based. Conditions: CV-1 cells transfected with hFXR, hRXR, PGL3-ECRE*6-luc; 18 h incubation; luminescence. How it is done:
Example B-1: In Vitro FXR Assay (PGL3)
CV-1 cells were seeded at a density of 2,000,000 cells in a T175 flask with DMEM+10% charcoal double-stripped FBS and incubated at 37° C. in a 5% CO2 for 18 h (O/N).
After 18 h of incubation, the medium in the T175 flask was changed with fresh DMEM+10% charcoal super-stripped serum.
To prepare the transfection reaction mixture, the transfection reagent (X-tremeGENE HP from Roche, Cat #06 366 236 001) was added in to a 1.5 mL microcentrifuge tube labelled “A” at a ratio of 1:3 (DNA in transfection reagent in μL). OptiMEM medium (Life Technologies, Cat #31985-062) was added accordingly to provide a total volume of 1 mL. The transfection reaction mixture was then briefly vortexed and incubated at room temperature for 5 minutes.
In a separate 1.5 mL microcentrifuge tube labelled “B”, 100 μL OptiMEM and plasmids XPD90Gal pCMXhFXRfl, pCMXhRXRfl+PGL3-ECRE*6-luc+CMX-YFP in the ratio 2 μg:2 μg:18 μg:3 μg were added. This microcentrifuge tube “B” was then briefly vortexed and incubated at room temperature for 5 minutes.
The total volume in tube labelled “A” was then transferred in to tube labelled “B.” The mixture was then briefly vortexed and the transfection:DNA complex was then incubated for about 15-20 minutes at room temperature.
Following incubation, the transfection reagent/DNA mixture complex was then added to cells in the T175 flask and the cells were incubated at […] (O/N) at 37° C. in 5% CO2.
In a 96 well plate, a half logarithmic serial dilution was prepared. OptiMEM was used as the diluent. Using any of one of the compounds described herein, a compound stock solution of 10 mM was prepared. An initial 1:100 dilution was made into the first well for a final concentration of 100 μM. The final concentrations in the 96-well plate was prepared by using a multichannel pipette to transfer 5 μL of the diluted compound to 384-well plate in quadruplicate.
Cells in T175 flask were trypsinized and cells were resuspended in 40 mL phenol red free DMEM+10% charcoal super-stripped FBS. Typically, one T175 flask was sufficient to seed two 384 well plates. CV-1 cells were seeded at 45 μL cell suspension/well using a multi-channel pipet or a 384 multidrop dispenser. The cells were then incubated for 18 hrs, overnight.
After removing the plates from the incubator, the medium was flicked out of plate and 384 well plate was turned upside down onto paper towel. The remaining medium was gently tapped out. 15 μL lysis buffer was then added to each well using a multichannel pipet or a 384 well multi-drop dispenser. After incubation for 10 minutes at room temperature on shaker, 30 μL Luciferase buffer was added to each well. Luminescence counts were taken immediately using the Perkin Elmer Envision.
The ability of the compounds disclosed herein to […] FXR activity was quantified and the respective EC50 value was determined. Fex=fexaramine.

As for `COC(=O)/C=C/c1cccc(N(Cc2ccc(-c3ccc(N(C)C)cc3)cc2)C(=O)C(C)(C)C)c1` [compound 1, (E)-Methyl 3-(3-(N-((4′-(dimethylamino)-[1,1′-biphenyl]-4-yl)methyl)pivalamido)phenyl)acrylate], in assay [1], the EC50 lay within 1000 to 10000 nM. Further, in assay [2], the “Cmpd/Fex (ratio of the EC50 for the test compound relative to the EC50 of the Fexaramine control)” value is “+++ (‘+++’ means Cmpd/Fex < 10)”.
In assay [1], `COC(=O)/C=C/c1cccc(N(Cc2ccc(-c3ccc(OC(C)C)cc3)cc2)C(=O)C2CCCCC2)c1` [compound 32, (E)-Methyl 3-(3-(N-((4′-isopropoxy-[1,1′-biphenyl]-4-yl)methyl)cyclohexanecarboxamido)phenyl)acrylate] had an EC50 of 1000 to 10000 nM. In addition, in assay [2], the “Cmpd/Fex (ratio of the EC50 for the test compound relative to the EC50 of the Fexaramine control)” value is “++ (‘++’ means Cmpd/Fex > 10 & < 100)”.
In assay [1], `COC(=O)/C=C/c1cccc(N(Cc2cccc(-c3ccccc3)c2)C(=O)C2CCCCC2)c1` [compound 82, (E)-Methyl 3-(3-(N-([1,1′-biphenyl]-3-ylmethyl)cyclohexanecarboxamido)phenyl) acrylate] returned an EC50 above 10000 nM. Further, the “Cmpd/Fex (ratio of the EC50 for the test compound relative to the EC50 of the Fexaramine control)” value in assay [2] is “+ (‘+’ means Cmpd/Fex > 100)”.
On the same counts, the results for `COC(=O)/C=C/c1cccc(N(Cc2ccc(-c3ccc(N(C)C)c(C)c3)cc2)C(=O)C2CCCCC2)c1` [compound 20, (E)-Methyl 3-(3-(N-((4′-(dimethylamino)-3′-methyl-[1,1′-biphenyl]-4-yl)methyl)cyclohexanecarboxamido)phenyl)acrylate] are at most 1000 nM and “+++ (‘+++’ means Cmpd/Fex < 10)”.
For the molecule `COC(=O)/C=C/c1cc(N(Cc2ccc(-c3ccc(N(C)C)cc3)cc2)C(=O)C2CCCCC2)ccc1C` [compound 40, (E)-Methyl 3-(5-(N-((4′-(dimethylamino)-[1,1′-biphenyl]-4-yl)methyl)cyclohexanecarboxamido)-2-methylphenyl)acrylate], in assay [1], the EC50 was above 10000 nM. Moreover, in assay [2], the “Cmpd/Fex (ratio of the EC50 for the test compound relative to the EC50 of the Fexaramine control)” value was “+ (‘+’ means Cmpd/Fex > 100)”.
In assay [1], `COC(=O)/C=C/c1cccc(N(Cc2ccc(-c3ccc(N(C)C)cc3)cc2)C(=O)C2CCOCC2)c1` [compound 5, (E)-Methyl 3-(3-(N-((4′-(dimethylamino)-[1,1′-biphenyl]-4-yl)methyl)tetrahydro-2H-pyran-4-carboxamido)phenyl)acrylate] yielded a concentration giving a half-maximal response (EC50) of at most 1000 nM. Besides, in assay [2], the “Cmpd/Fex (ratio of the EC50 for the test compound relative to the EC50 of the Fexaramine control)” value was “+++ (‘+++’ means Cmpd/Fex < 10)”.
For the molecule `COC(=O)/C=C/c1cccc(N(Cc2ccc(-c3ccc4c(c3)ncn4C)cc2)C(=O)C2CCCCC2)c1` [compound 74, (E)-Methyl 3-(3-(N-(4-(1-methyl-1H-benzo[d]imidazol-5-yl)benzyl)cyclohexanecarboxamido)phenyl) acrylate], the EC50 in assay [1] lay in the range of 1000 to 10000 nM. The “Cmpd/Fex (ratio of the EC50 for the test compound relative to the EC50 of the Fexaramine control)” value in assay [2] is reported as “+ (‘+’ means Cmpd/Fex > 100)”.
`COC(=O)/C=C/c1cccc(N(Cc2ccc(-c3ccc(C(F)(F)F)cc3)cc2)C(=O)C2CCCCC2)c1` [compound 36, (E)-Methyl 3-(3-(N-((4′-(trifluoromethyl)-[1,1′-biphenyl]-4-yl)methyl)cyclohexanecarboxamido)phenyl)acrylate] came in with an EC50 in assay [1] of 1000 to 10000 nM. The “Cmpd/Fex (ratio of the EC50 for the test compound relative to the EC50 of the Fexaramine control)” value in assay [2] is on record as “++ (‘++’ means Cmpd/Fex > 10 & < 100)”.
`COC(=O)/C=C/c1cccc(N(Cc2ccc(-c3nccs3)cc2)C(=O)C2CCCCC2)c1` [compound 67, (E)-Methyl 3-(3-(N-(4-(thiazol-2-yl)benzyl)cyclohexanecarboxamido)phenyl) acrylate] yielded an EC50 in assay [1] of 1000 to 10000 nM. The “Cmpd/Fex (ratio of the EC50 for the test compound relative to the EC50 of the Fexaramine control)” value in assay [2] is recorded as “+ (‘+’ means Cmpd/Fex > 100)”.
On the same counts, the results for `COC(=O)/C=C/c1cccc(N(Cc2ccc(-c3ccc(N(C)C)cc3)c(F)c2)C(=O)C2CCCCC2)c1` [compound 50, (E)-methyl 3-(3-(N-((4′-(dimethylamino)-2-fluoro-[1,1′-biphenyl]-4-yl)methyl)cyclohexanecarboxamido)phenyl) acrylate] are at most 1000 nM and “+++ (‘+++’ means Cmpd/Fex < 10)”.
In the case of `COC(=O)/C=C/c1cccc(N(C(=O)C2CCCCC2)C(C)c2ccc(-c3ccc(N(C)C)cc3)cc2)c1` (stereo not drawn) [compound 46, (E)-Methyl 3-(3-(N-(1-(4′-(dimethylamino)-[1,1′-biphenyl]-4-yl)ethyl)cyclohexanecarboxamido)phenyl) acrylate], the half-maximal effective concentration (EC50) in assay [1] lay in the range of 1000 to 10000 nM. For the same molecule, the “Cmpd/Fex (ratio of the EC50 for the test compound relative to the EC50 of the Fexaramine control)” value in assay [2] is listed as “++ (‘++’ means Cmpd/Fex > 10 & < 100)”.
In the case of `COC(=O)/C=C/c1cccc(N(Cc2ccc(N3CCCCC3)cc2)C(=O)C2CCCCC2)c1` [compound 78, (E)-Methyl 3-(3-(N-(4-(piperidin-1-yl)benzyl)cyclohexanecarboxamido)phenyl) acrylate], the EC50 in assay [1] was in the range of 1000 to 10000 nM. Moreover, the “Cmpd/Fex (ratio of the EC50 for the test compound relative to the EC50 of the Fexaramine control)” value in assay [2] was “++ (‘++’ means Cmpd/Fex > 10 & < 100)”.
`COC(=O)/C=C/c1cccc(N(Cc2ccc(-c3cccc(C#N)c3)cc2)C(=O)C2CCCCC2)c1` [compound 24, (E)-Methyl 3-(3-(N-((3′-cyano-[1,1′-biphenyl]-4-yl)methyl)cyclohexanecarboxamido)phenyl)acrylate] returned an EC50 in assay [1] of at most 1000 nM. In addition, in assay [2], the “Cmpd/Fex (ratio of the EC50 for the test compound relative to the EC50 of the Fexaramine control)” value is “+++ (‘+++’ means Cmpd/Fex < 10)”.
In turn, `COC(=O)/C=C/c1cccc(N(Cc2ccc(-c3ccc(N(C)C)nc3)cc2)C(=O)C2CCCCC2)c1` [compound 38, (E)-Methyl 3-(3-(N-(4-(6-(dimethylamino)pyridin-3-yl)benzyl)cyclohexanecarboxamido)phenyl) acrylate] showed an EC50 in assay [1] of at most 1000 nM. In addition, the “Cmpd/Fex (ratio of the EC50 for the test compound relative to the EC50 of the Fexaramine control)” value in assay [2] was “+++ (‘+++’ means Cmpd/Fex < 10)”.
On the same counts, the results for `COC(=O)/C=C/c1cccc(N(Cc2ccc(-c3cnn(C)c3)cc2)C(=O)C2CCCCC2)c1` [compound 28, (E)-Methyl 3-(3-(N-(4-(1-methyl-1H-pyrazol-4-yl)benzyl)cyclohexanecarboxamido)phenyl)acrylate] are 1000 to 10000 nM and “++ (‘++’ means Cmpd/Fex > 10 & < 100)”.
